pIC50: −log10 of the molar value.
Tests used:
HT-29 tumor cells = test: Anti-proliferative activity, SRB assay; format: cell-based, human; conditions: Homo sapiens, HT-29, 72 h, 72 hours exposure, read-out: CELLULAR IC50 HT-29
Outline: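 Cells at 3,000-15,000/well, plated 24 h before compound, exposed to a concentration range for 72 hours. Proliferation measured by SRB staining after cold TCA fixation, absorbance at OD570; IC50 estimated from % inhibition versus DMSO-treated cells.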

B-Raf delta1-415 = B-Raf delta1-415 (Homo sapiens, UniProt P15056); test: B-Raf kinase inhibition (MAPH filter plate, 33P-ATP, MEK1 substrate); conditions: read-out: Biochemical IC50 B-Raf
Outline: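 Radiometric filter-binding assay with B-Raf delta1-415 at a level giving 50% turnover, MEK1 substrate and 33P-ATP (12.5 μCi/ml) in 20 mM Mops pH 7.0 with Mg/Mn, 1 h at room temperature. Inhibitor dilution series from 10 μM; EDTA-stopped reactions captured on phosphocellulose filters, counted by scintillation for IC50.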

[1] = molecular target: C-Raf Raf-1 (truncated), active (Homo sapiens, UniProt P04049, Y340D/Y341D); test: C-Raf kinase inhibition (MAPH assay / IMAP assay); conditions: read-out: Biochemical IC50 C-Raf
Excerpt: We characterized the in vitro inhibitory activity against protein kinases of compounds of the present invention by determining their IC50 values (see Table 2).
Kinase: C-Raf Raf-1 (truncated), active (Upstate; cat. no. 14-352)
Reaction Temperature: room temperature
Assay Plate: 96 well U bottom plate (Greiner, 650161)
MultiScreen-PH Plate: 96 well MAPH Filter Plates (Millipore, MAPHNOB50)
Filter Washing Solution: 0.75% H3PO4
Scintillation Liquid: Supermix Liquid Scintillator (PerkinElmer, 1200-439)
Negative Control (C−): 100 mM EDTA, no inhibitor
Positive Control (C+): no inhibitor
Reaction Buffer (Final Concentration):
Final Assay Concentrations:
Kinase: Use kinase conc. yielding 10% ATP turnover as determined in titration experiment.
Adenosine 5′-[γ-^33P]triphosphate: 12.5 μCi/ml (Amersham Biosciences, BF1000)
Substrate: Myelin Basic Protein 57.8 μM (Invitrogen, 13228-010)
Pipetting Sequence: • 1) Add 10 μl 4-fold concentrated substrate+4-fold concentrated ATP in 3-fold concentrated reaction buffer to each well of assay plate • 2) Add 10 μl […] concentrated inhibitor in 4% DMSO in H2O to each well except to C− and C+ wells (starting point: final inhibitor concentration 10 μM; IC50 determination based on dilution series) • 3) Add 10 μl 4% DMSO in H2O to C− and C+ wells • 4) Add 10 μl 500 mM EDTA in H2O to C− wells • 5) Add 10 μl 50 μCi/ml adenosine 5′-[γ-^33P]triphosphate in H2O to each well • 6) Add 10 μl […] concentrated kinase in Reaction Buffer to each well • 7) Incubate 1 hr at room temperature • 8) Add 10 μl 50 mM EDTA in H2O to each well except to C− wells • 9) Prepare MAPH plates by adding 200 μl 0.75% H3PO4 to each well • 10) Exhaust 0.75% H3PO4 using Millipore vacuum station • 11) Add 60 μl 0.75% H3PO4 to each well of MAPH filter plate • 12) Transfer 30 μl sample per well from assay plate to corresponding well of MAPH filter plate • 13) Incubate 30 min at room temperature • 14) Wash each well of MAPH filter plates 3× with 200 μl 0.75% H3PO4 using Millipore vacuum station • 15) Add 20 μl scintillation liquid to each well of MAPH filter plate • 16) Seal MAPH filter plate • 17) Store MAPH filter plate 30 min in darkness • 18) Quantify radioactivity using scintillation counter (MicroBeta, Perkin-Elmer)
Reaction Volume: 8.0108 μl
IMAP Incubation Time: 60 min
Assay Plate: 384 well U bottom, PP, black, low volume (Corning, 3676)
Compound Plate: 384 well U bottom, PS (Falcon, 3995)
IMAP Binding Buffer A: Molecular Devices, R7282
IMAP Binding Buffer B: Molecular Devices, R7283
IMAP Binding Reagent: Molecular Devices, R7207
Negative Control (C−): no kinase, no inhibitor
Reation buffer: 20 mM Hepes, pH 7.5 • 1 mM DTT • 10 mM MnCl2 • 0.01% Brij35
Kinase: Kinase conc. yielding 50% substrate turnover as determined in titration experiment • c-Raf (Upstate 14-352)
Substrate: 5F1-SGQLIDSMANSFV-NH2 400 nM (jpt Peptide Technologies GmbH, Berlin, Germany)
IMAP Binding Solution: 75% IMAP Binding Buffer A • 25% IMAP Binding Buffer B • IMAP Binding Reagent 1:800
Pipetting Sequence: • 1) Add 6 μl 1.33-fold concentrated substrate+1.33-fold concentrated ATP in 1-fold concentrated reaction buffer to each well of assay plate • 2) Add 10.8 nl 740-fold concentrated inhibitor in 100% DMSO to each well except to C− and C+ wells using pintool (CyBio, Jena, Germany) (starting point: final inhibitor concentration 10 μM; IC50 determination based on dilution series) • 3) Add 10.8 nl 100% DMSO to C− and C+ wells using pintool • 4) Add 2 μl reaction buffer to C− wells • 5) Add 2 μl 4-fold concentrated kinase in reaction buffer to each well except C− wells • 6) Incubate according to reaction time at room temperature • 7) Add 15 μl IMAP binding solution to each well • 8) Incubate according to IMAP incubation time at room temperature • 9) Measure fluorescence polarization (Analyst GT, Molecular Devices)

B-Raf delta1-415, sequence (P15056 416-766): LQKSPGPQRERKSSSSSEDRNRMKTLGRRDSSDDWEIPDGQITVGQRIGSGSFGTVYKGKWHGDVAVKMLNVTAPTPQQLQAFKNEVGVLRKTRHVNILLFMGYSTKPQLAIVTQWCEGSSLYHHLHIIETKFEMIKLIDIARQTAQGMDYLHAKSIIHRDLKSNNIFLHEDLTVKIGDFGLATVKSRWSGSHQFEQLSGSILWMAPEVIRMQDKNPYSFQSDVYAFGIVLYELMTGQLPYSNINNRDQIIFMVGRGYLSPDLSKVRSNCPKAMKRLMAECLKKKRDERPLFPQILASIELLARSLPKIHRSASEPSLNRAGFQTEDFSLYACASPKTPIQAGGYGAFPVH
C-Raf Raf-1 (truncated), active, sequence (P04049 306-648 Y340D/Y341D): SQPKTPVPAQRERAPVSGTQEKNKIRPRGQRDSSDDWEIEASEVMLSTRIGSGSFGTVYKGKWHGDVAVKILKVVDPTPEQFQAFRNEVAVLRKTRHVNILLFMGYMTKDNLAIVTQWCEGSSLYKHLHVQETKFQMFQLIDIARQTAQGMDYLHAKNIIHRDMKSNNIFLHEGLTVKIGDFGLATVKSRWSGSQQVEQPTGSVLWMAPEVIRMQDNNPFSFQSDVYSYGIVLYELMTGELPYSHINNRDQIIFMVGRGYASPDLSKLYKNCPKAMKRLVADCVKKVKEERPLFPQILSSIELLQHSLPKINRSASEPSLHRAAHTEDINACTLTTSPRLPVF

Row | SMILES | pIC50 (HT-29 tumor cells) | pIC50 (B-Raf delta1-415) | pIC50 [1]
1 | COc1cccc(Nc2ncc3cc(-c4c(Cl)cccc4Cl)c(=O)n(OCCCCN)c3n2)c1 [Compound 41, 8-(4-Aminobutoxy)-6-(2,6-dichlorophenyl)-2-(3-methoxyphenylamino)-pyrido[2,3-d]pyrimidin-7-one] | > 6.00 | > 6.30 | > 7.00
2 | COn1c(=O)c(-c2cccc(NC(C)=O)c2)cc2cnc(Nc3ccccc3)nc21 [Compound 62] | > 5.00 | > 5.00 | > 7.00
3 | COn1c(=O)c(-c2cc(NC(=O)C(C)C)ccc2Cl)cc2cnc(Nc3ccccc3)nc21 [Compound 32] | > 5.00 | < 6.00 | > 7.00
4 | COn1c(=O)c(-c2ccccc2Cl)cc2cnc(Nc3cccc(CO)c3)nc21 [Compound 5, 6-(2-Chlorophenyl)-8-methoxy-2-(3-hydroxymethylphenylamino)-pyrido[2,3-d]pyrimidin-7-one] | > 6.00 | > 6.30 | > 7.00
5 | COn1c(=O)c(-c2c(Cl)cccc2Cl)cc2cnc(Nc3cccc(SC)c3)nc21 [Compound 2, 6-(2,6-Dichlorophenyl)-8-methoxy-2-(3-methylthiophenylamino)-pyrido[2,3-d]pyrimidin-7-one] | > 6.00 | > 7.00 | > 6.30
6 | CCOn1c(=O)c(-c2c(F)cccc2Cl)cc2cnc(Nc3ccc(N4CCN(C)CC4)cc3)nc21 [Compound 51, 6-(2-Chloro-6-fluorophenyl)-8-ethoxy-2-(4-(4-methylpiperazino)-phenylamino)-pyrido[2,3-d]pyrimidin-7-one] | > 6.00 | > 7.00 | > 7.00
7 | NCCCOn1c(=O)c(-c2c(Cl)cccc2Cl)cc2cnc(Nc3ccccc3)nc21 [Compound 55, 8-(3-Aminopropyl)oxy-6-(2,6-dichlorophenyl)-2-phenylamino-pyrido[2,3-d]pyrimidin-7-one] | > 6.00 | > 6.30 | > 6.30
8 | COc1cccc(Nc2ncc3cc(-c4c(Cl)cccc4Cl)c(=O)n(OCCO)c3n2)c1 [Compound 73, 6-(2,6-Dichlorophenyl)-8-(2-hydroxyethyl)oxy-2-(3-methoxyphenyl)amino-pyrido[2,3-d]pyrimidin-7-one] | > 6.00 | > 7.00 | > 7.00
9 | COn1c(=O)c(-c2c(Cl)cccc2Cl)cc2cnc(Nc3cc(CO)ccc3F)nc21 [Compound 27, 6-(2,6-Dichlorophenyl)-2-(2-fluoro-5-(hydroxymethyl)phenylamino)-8-methoxy-pyrido[2,3-d]pyrimidin-7-one] | > 5.00 | < 6.00 | > 7.00
10 | COn1c(=O)c(-c2ccc(Cl)c(Cl)c2)cc2cnc(Nc3cccc(S(N)(=O)=O)c3)nc21 [Compound 64, 2-(3-Aminosulfonlyphenyl)-amino-6-(3,4-dichlorophenyl)-8-methoxy-pyrido[2,3-d]pyrimidin-7-one] | > 5.00 | > 6.30 | > 6.30
11 | COCCNc1ncc2cc(-c3c(Cl)cccc3Cl)c(=O)n(OC)c2n1 [Compound 48, 6-(2,6-Dichlorophenyl)-8-methoxy-2-methoxyethylamino-pyrido[2,3-d]pyrimidin-7-one] | < 5.00 | > 6.30 | > 7.00
12 | COn1c(=O)c(-c2cc(NC(=O)c3ccccc3)ccc2Cl)cc2cnc(Nc3ccc(N4CCN(C)CC4)cc3)nc21 [Compound 9, 6-(5-Benzoylamino-2-chloro-phenyl)-8-methoxy-2-(4-(4-methylpiperazino)-phenylamino)-pyrido[2,3-d]pyrimidin-7-one] | > 6.00 | > 6.30 | > 7.00
13 | NCCCCOn1c(=O)c(-c2c(Cl)cccc2Cl)cc2cnc(Nc3ccccc3)nc21 [Compound 34, 8-(4-Aminobutoxy)-6-(2,6-dichlorophenyl)-2-phenylamino-pyrido[2,3-d]pyrimidin-7-one] | > 6.00 | > 6.00 | > 7.00
14 | COc1cccc(Nc2ncc3cc(-c4c(F)cccc4Cl)c(=O)n(OC[C@@H](O)CO)c3n2)c1 [Compound 75, 6-(2-Chloro-6-fluorophenyl)-8-(2-(S)-2,3-dihydroxypropyl)oxy-2-(3-methoxyphenyl)amino-pyrido[2,3-d]pyrimidin-7-one] | > 6.00 | > 7.00 | > 7.00

Results, then the compound that gave them:

Row | pIC50 (HT-29 tumor cells) | pIC50 (B-Raf delta1-415) | pIC50 [1] | SMILES
15 | > 6.00 | > 6.30 | > 7.00 | COc1cccc(Nc2ncc3cc(-c4c(Cl)cccc4Cl)c(=O)n(OCCN)c3n2)c1 [Compound 70, 8-(2-Aminoethyl)oxy-6-(2,6-dichlorophenyl)-2-(3-methoxyphenyl)amino-pyrido[2,3-d]pyrimidin-7-one]
16 | > 6.00 | > 7.00 | > 7.00 | COn1c(=O)c(-c2c(F)cccc2Cl)cc2cnc(Nc3cccc(S(N)(=O)=O)c3)nc21 [Compound 30, 6-(2-Chloro-6-fluorophenyl)-8-methoxy-2-(3-sulfamoylphenylamino)-pyrido[2,3-d]pyrimidin-7-one]
17 | > 6.00 | > 6.30 | > 7.00 | NCCCCCOn1c(=O)c(-c2c(Cl)cccc2Cl)cc2cnc(Nc3ccccc3)nc21 [Compound 56, 8-(5-Aminopentyl)oxy-6-(2,6-dichlorophenyl)-2-phenylamino-pyrido[2,3-d]pyrimidin-7-one]
18 | > 6.00 | > 7.00 | > 7.00 | COc1cccc(Nc2ncc3cc(-c4c(Cl)cccc4Cl)c(=O)n(OCCCN)c3n2)c1 [Compound 71, 8-(3-Aminopropyl)oxy-6-(2,6-dichlorophenyl)-2-(3-methoxyphenyl)amino-pyrido[2,3-d]pyrimidin-7-one]
19 | > 6.00 | > 6.30 | > 7.00 | COCCOn1c(=O)c(-c2ccccc2Cl)cc2cnc(Nc3ccccc3)nc21 [Compound 20]
20 | > 6.00 | > 7.00 | > 7.00 | COn1c(=O)c(-c2c(Cl)cccc2Cl)cc2cnc(Nc3ccc(S(C)(=O)=O)cc3)nc21 [Compound 11, 6-(2,6-Dichlorophenyl)-8-methoxy-2-(4-methylsulfonylphenylamino)-pyrido[2,3-d]pyrimidin-7-one]
21 | > 6.00 | > 7.00 | > 7.00 | CN1CCN(c2ccc(Nc3ncc4cc(-c5c(F)cccc5Cl)c(=O)n(OCC5CC5)c4n3)cc2)CC1 [Compound 52, 6-(2-Chloro-6-fluorophenyl)-8-cyclopropylmethoxy-2-(4-(4-methylpiperazino)-phenylamino)-pyrido[2,3-d]pyrimidin-7-one]
